US20260108547A1, “LEVERAGING L-FUCOSE-MEDIATED SIGNALING TO INDUCE MONOCYTE-DERIVED DENDRITIC CELL POLARIZATION” (H. LEE MOFFITT CANCER CENTER AND RESEARCH INSTITUTE, INC., priority 2022, published 2026)

Experiments:
[1] = tested on: human PBMC-derived CD4+T cells; test: Phosphoproteomic and fucosylated proteomic analyses of CD3/CD28-activated CD4+T cells; type: cell-based; conditions: 250 μM L-fucose
Protocol: CD4^+T cells cultured and treated as indicated in the main text were harvested and lysed in standard RIPA buffer+protease and phosphatase inhibitors. Protein concentration was estimated by BCA assay (Bio-Rad) and 1 mg lysates were subjected to trypsin digestion. Briefly, lysates were reduced with 4.5 mM dithiothreitol (DTT) for 30 min at 60° C., alkylated with 10 mM iodoacetamide (IAA) at room temperature in the dark for 20 minutes, and digested overnight at 37° C. with 1:20 enzyme-to-protein ratio of trypsin (Worthington). The resulting peptide solution was de-salted using reversed-phase Sep-Pak C18 cartridge (Waters) and lyophilized for 48 hours.
The lyophilized peptides were enriched for global phosphopeptides (pSTY) using IMAC Fe-NTA magnetic beads (Cell Signaling Technology, #20432). Enrichment were carried out on a KingFisher™ Flex Purification System (Thermo Fisher, #24074441). […]
On-bead digestion was performed with trypsin and tryptic peptides were then analyzed using a nanoflow ultra-high-performance liquid chromatograph (RSLC, Dionex, Sunnyvale, CA) coupled to an electrospray orbitrap mass spectrometer (Q-Exactive Plus, Thermo, San Jose, CA) for tandem mass spectrometry peptide sequencing. […] MaxQuant software (version 1.6.2.10) was used to identify and quantify the proteins for the DDA runs. […]

[2] = tested on: CD209; test: DC broad panel analysis and signaling array on phosphorylated proteins; type: cell-based
Excerpt: To better understand the phenotype of DC subsets after L-fucose treatment, we preformed broad panel analysis to highlight unique subsets of DCs, including markers of activation, cross presentation and known signaling mechanisms. […] To determine if this increased expression was related to any other signaling changes we performed a signaling array on key phosphorylated proteins on activated DCs after L-fucose treatment. […] From this, we concluded that L-fucose increases expression of CD209 and modulates downstream signaling paths

C[C@H](O)[C@@H](O)[C@@H](O)[C@H](O)C=O [L-fucose]
Protein Kinase A (PKA) and actin signaling in CD4+T cells [1]: significantly altering
CD209 expression ([2]; DC subsets after L-fucose treatment): increase
AKT and PARP (signaling array on phosphorylated proteins) ([2]; activated DCs): significant decreases
